Assay results: patent US5817756A, “Pseudo- and non-peptide bradykinin receptor antagonists” (Scios Inc., priority 1995, dated 1998)
Values belong to the molecule of their own block, whether it stands above or below them. Starred links: 1 amine or outer side, 2 acyl side, 3 side chain; linkers in the order of their positions; H or OH if unused. Non-standard residues stand in square brackets, D forms with d. Residues, ends and D or L forms follow the SMILES beside them. Oic = O=C(O)[C@@H]1C[C@@H]2CCCC[C@@H]2N1; X2 = O=C(/C=C/c1ccccc1CN[*:1])[*:2]; dTic = O=C(O)[C@H]1Cc2ccccc2CN1

Tests used:
[1] = target: T1, bradykinin receptor, guinea pig terminal ileum homogenate (Cavia porcellus, UniProt O70526); test: Guinea pig ileum binding of 3H-bradykinin; details: Table 1, read-out: Radioligand Binding Guinea Pig
T1 construct: from tissue; host or cells: terminal ileum of male Hartley guinea pigs, washed membrane homogenate
T1 sequence (O70526 1-372): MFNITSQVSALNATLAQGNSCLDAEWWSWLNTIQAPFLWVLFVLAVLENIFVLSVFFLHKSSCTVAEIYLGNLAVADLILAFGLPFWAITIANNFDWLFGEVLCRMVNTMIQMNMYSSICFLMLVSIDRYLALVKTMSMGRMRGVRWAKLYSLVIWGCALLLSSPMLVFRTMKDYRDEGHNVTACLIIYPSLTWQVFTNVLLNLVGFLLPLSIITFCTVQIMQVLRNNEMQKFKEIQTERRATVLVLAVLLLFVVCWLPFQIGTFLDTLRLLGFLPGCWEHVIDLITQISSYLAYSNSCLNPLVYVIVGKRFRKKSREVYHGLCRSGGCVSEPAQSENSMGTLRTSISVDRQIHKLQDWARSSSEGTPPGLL
Protocol: Binding of ^3 H-bradykinin was performed using the method of D. C. Manning, R. Vavrek, J. M. Stewart, and S. H. Snyder, J. Pharmacol. Exp. Ther., (1986) 237:504. The tissues used in the binding assay were terminal ileum from male Hartley guinea pigs (150-350 g). After dissection, tissues were placed in 20 volume of ice-cold buffer A (25 mM TES containing 0.2 g/l of 1,10-phenanthroline adjusted of pH 6.8 with ammonium hydroxide) and homogenized using a Polytron Tissumizer at setting 6 for 15 seconds. The homogenate was centrifuged at 50,000×g for 10 minutes, the supernatant discarded, and the pellet resuspended in ice-cold buffer A by homogenization with the Polytron. Each tissue was homogenized and centrifuged three times. The final pellet was resuspended in buffer A containing bovine serum albumin (1 g/l) and Bacitracin (0.14 g/l) to a final volume of 170 ml/g of the original tissue weight. The binding assay consisted of […] in 12×75 mm polypropylene tubes: 50 μl ^3 H-bradykinin (20,000 dpm, ~0.3 nM in the final assay volume), 100 μl displacing drug in buffer A, and 750 μl tissue homogenate. Each tray contained tubes, to which no drug was added to measure maximum binding and tubes to which bradykinin (1 μM final concentration) had been added, to measure […]. Specific binding accounted for 96-98% total binding. Tubes were incubated for 90 minutes at ambient temperature. The assays were terminated by filtration over Whatman GF/B glass fiber filters that had been pretreated for 2 hours with polyethyleneimine (2 g/l) using a Brandel Tissue Harvester, followed by washing with 4×1 ml aliquots of ice-cold 50 mM Tris, pH 7.4. Filters were dissolved in Ready-Safe Fluor (Beckman) for at least 90 minutes before quantitation by liquid scintillation spectrometry. Kd values were determined using saturation binding and analysis by EBDA (G. A. MacPherson, J. Pharmacol. Methods (1985) 213), followed by LIGAND (P. J. Munson, D. Rodbard, Anal. Biochem. (1980) 220). Ki values were determined using competitive analysis followed by EBDA and LIGAND.

[2] = target: T2, human bradykinin B2 receptor (Homo sapiens, UniProt P30411); test: Radioligand binding, H2O.2 cell membranes, 3H-NPC17731; details: 3H-NPC17731
T2 construct: The HindIII/XbaI fragment of one full-length clone, 126A, was inserted into pcDNAI neo vector; expressed in transfected cells
T2 sequence (P30411 1-391): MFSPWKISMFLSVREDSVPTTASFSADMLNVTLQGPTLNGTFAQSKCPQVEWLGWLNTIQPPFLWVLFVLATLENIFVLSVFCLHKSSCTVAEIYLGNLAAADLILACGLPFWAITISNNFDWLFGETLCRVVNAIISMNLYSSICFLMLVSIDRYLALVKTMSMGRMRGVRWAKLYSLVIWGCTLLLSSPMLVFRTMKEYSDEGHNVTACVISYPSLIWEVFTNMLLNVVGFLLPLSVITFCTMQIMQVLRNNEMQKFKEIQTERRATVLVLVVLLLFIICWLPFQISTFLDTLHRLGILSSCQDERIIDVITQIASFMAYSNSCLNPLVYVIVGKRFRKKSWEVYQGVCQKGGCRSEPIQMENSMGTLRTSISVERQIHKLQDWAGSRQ
Protocol: (§1) A human bradykinin B2 receptor was expressed in CHO/K cells. Briefly, approximately 2×10^6 plaques from a human uterus λgt10 cDNA library (Clontech Laboratories; Palo Alto, Calif.) were screened using a PCR fragment containing the coding region of the rat B2 receptor. This probe was generated by random-primed synthesis in the presence of α[^32 P]dATP. Duplicate filters were hybridized overnight at 42° C. in 1M NaCl, 50 mM Tris pH 7.5, 5× Denhardt's, 200 μg/ml salmon sperm DNA, 1% SDS, and 20% formamide. The filters were washed at 65° C. in 1× SSC and 1% SDS. Coincident positively hybridizing plaques were purified and rescreened with the same probe and stringency conditions. EcoRI fragments of positive clones were inserted into Bluescript/KS II+vector (Stratagene; La Jolla, Calif.) for sequence determination.
(§2) The nucleotide sequence of the cloned human B2 receptors was determined using double-stranded DNA and the dideoxy chain termination method. Commercially available T3 and T7 oligonucleotides (USB; Cleveland, Ohio) and synthetic 21-mer oligonucleotides (DNA/RNA Synthesizer; applied Biosystems Inc.; Palo Alto, Calif.) from both the known rat sequence and the determined human sequence were used to identify the nucleotide sequence from the 5' untranslated end to the BglII site in the 3' untranslated end of the clone.
(§3) CHO/K cells were plated in 2 ml of growth medium (Ham's F12 with 10% FBS) per 6 well plate and incubated at 37° C., 5% CO2 until they were 60% confluent. For each well, 4, 12, and 16 μg of DNA was diluted in 100 μl Opti-MEM I reduced serum medium (Gibco/BRL; Gaithersburg, Md.). 12 μl of TransfectASE reagent (Gibco/BRL) was diluted in a separate aliquot of 100 μl Opti-MEM I. The DNA and TransfecASE solutions were combined, mixed gently, and incubated at 25° C. for 15 minutes. This solution was then diluted to 1 ml with Opti-MEM I. Each well was washed twice with Opti-MEM I and 1 ml of the DNA/TransfectAse complex was added to each well. After a 5 hour incubation at 37° C. and 5% CO2, 1 ml of Ham's F12 with 20% FBS was added to each well and cells were incubated overnight. Media was replaced with growth medium and incubated for additional 24 hours.
(§4) This assay measures the ability of a bradykinin antagonist compound to compete for binding to the human B2 receptor with tritiated bradykinin or tritiated NPC17731, a bradykinin analog which is known to bind the B2 receptor and act as a bradykinin antagonist.
(§5) H2O.2 cells were grown to confluency in Ham's F12 media containing 10% FBS and 500 μg/ml Geneticin. Growth media was aspirated and the monolayer washed once with Dulbecco's PBS without Ca^++ and Mg^++. Cells were scraped in Dulbecco's PBS and centrifuged at 2,000×g for 10 minutes. Pellets were resuspended in 25 mM TES, 1 mM 1,10-phenanthroline pH 6.8 buffer and homogenized using a Ploytron at setting 5 for 10 seconds. An aliquot was taken for a protein determination using a BioRad protein assay kit. Membranes were centrifuged at 48,000×g for 10 minutes at 4° C. Pellets were resuspended in the TES buffer with 0.1% BSA and 0.014% bacitracin. 0.5 ml aliquots were frozen in liquid N2 and stored at -80° C. for up to 2 weeks.
(§6) Membranes from H2O.2 cells previously prepared were thawed at 37° C. and diluted in 25 mM TES, […] 1,10-phenanthroline pH 6.8 containing BSA and bactiracin. […] Non-specific binding was determined with 1 μM bradykinin. The tubes were incubated 90 minutes at 25° C. and the assay was terminated by rapid vacuum filtration onto Whatman GF/B filters presoaked with 0.2% PEI for 3 hours followed by 2×3 ml aliquots of ice-cold 50 mM Tris, pH 7.4. Radioactivity was counted with a Beckman scintillation counter.

human B2 receptor = target: T3, human B2 receptor (Homo sapiens, UniProt P30411); test: Whole cell binding assay, 3H-bradykinin; details: Table 2, whole cells, read-out: Radioligand Binding, Ki Whole Cell 3HBK
T3 construct: The HindIII/XbaI fragment of one full-length clone, 126A, was inserted into pcDNAI neo vector; expressed in transfected cells
T3 sequence (P30411 1-391): T2 sequence (P30411 1-391)
Protocol: Binding to confluent monolayers of transfected cells expressing the human B2 receptor (7,000 fmol/receptor/mg) grown in 24-well plates was measured by incubating cells in 1 ml cell binding buffer (PBS/Ca/Mg, 1% BSA, 0.14 mg/ml bacitracin) containing 10^-10 M ^3 H-bradykinin and various concentrations of unlabeled analogs for 4 to 10 hours at 4° C. Cells were washed three times with cell binding buffer and lysed in 0.1N NaOH. An aliquot of the lysate was counted to measure radioactivity bound.

[3] = target: T2, human bradykinin B2 receptor; test: Radioligand binding, H2O.2 cell membranes, 3H-bradykinin; details: Table 2, read-out: Radioligand Binding, Ki Human 3HBK
Protocol: as §1, §2, §3, §4, §5, §6

[4] = system: bradykinin-induced contraction of guinea pig ileum longitudinal muscle; test: Guinea pig ileum contraction assay; format: cell-based; details: Schild analysis against bradykinin
Protocol: Guinea pig intestine was removed and placed in a Petri dish containing Tyrodes solution and cut into 3-4 cm segments.
After equilibration of the tissues, appropriate volumes of bradykinin solutions were cumulatively added to the 10 ml tissue baths to increase the concentration of bradykinin in the bath step-by-step without washing out after each single dose. Higher concentrations were added only after the preceding contraction had reached a steady value. […] Antagonism of bradykinin responses to the presence of antagonist were determined by repeating the cumulative addition procedure for bradykinin after the tissue has been exposed to the antagonist for 5 minutes. Three or four different concentrations of antagonist were studied sequentially in the same preparations. Responses were expressed as a percentage of the maximum […] elicited by bradykinin in the absence of antagonist. pA2 values were calculated by Schild analysis.

SMILES: N=C(N)NCCC[C@@H](N)C(=O)N[C@@H](CCCNC(=N)N)C(=O)NCc1ccccc1/C=C/C(=O)N[C@@H](CO)C(=O)N1Cc2ccccc2C[C@@H]1C(=O)N1[C@H](C(=O)N[C@@H](CCCNC(=N)N)C(=O)O)C[C@@H]2CCCC[C@@H]21 (H-[dR]R[X2]S[dTic][Oic]R-OH)
- Ki [1]: 120 ± 8 nM
- Ki ([2]; Table 1, read-out: Radioligand Binding Human 3H17731): 27 nM

- Ki (human B2 receptor): 10400 nM
- Ki ([2]; Table 2, read-out: Radioligand Binding, Ki Human 3H17731): 94 nM
- Ki [3]: 1800 nM
SMILES: N=C(N)NCCC[C@@H](N)C(=O)N[C@@H](CCCNC(=N)N)C(=O)N1CCC2(CC1)C(=O)N(CC(=O)N1CCc3c(n(CC(=O)N[C@@H](CCCNC(=N)N)C(=O)O)c4ccccc34)C1)CN2c1ccccc1 [Compound 2]

SMILES: N=C(N)NCCC[C@@H](N)C(=O)N[C@@H](CCCNC(=N)N)C(=O)N1CCC2(CC1)C(=O)N(CC(=O)N[C@@H](CO)C(=O)N1Cc3ccccc3C[C@@H]1C(=O)N1[C@H](C(=O)N[C@@H](CCCNC(=N)N)C(=O)O)C[C@@H]3CCCC[C@@H]31)CN2c1ccccc1 [HDArgArgX[Ph]CH2 COSerDTicOicArgOH]
- Guinea Pig Ileum Contraction pA2 [4]: 6.7

SMILES: N=C(N)NCCC[C@@H](N)C(=O)N[C@@H](CCCNC(=N)N)C(=O)N1CCC2(CC1)C(=O)N(CC(=O)N[C@@H](CO)C(=O)N1Cc3ccccc3C[C@@H]1C(=O)N1[C@H](C(=O)N[C@@H](CCCNC(=N)N)C(=O)O)C[C@@H]3CCCC[C@@H]31)CN2C1CCCCC1 [HDArgArgX[c-C6 H11]CH2 COSerDTicOicArgOH]
- Guinea Pig Ileum Contraction pA2 [4]: 6.4
